According to patent US20040072222A1, “Peptide analogues of myelin basic protein epitopes in the treatment of experimental autoimmune encephalomyelitis (eae) and multiple sclerosis (ms)” (priority 2003, published 2004):
“Also recorded” adds a separate entry of the source. Like-named read-outs stand apart in the source and are kept apart here. Where no end group is shown, it is not given here.

How the values were obtained:
[1] = test system: demyelination and inflammation in the spinal cord; experiment: Histopathological examination of spinal cord sections (Luxol fast blue / Nuclear Fast Red); format: in vivo, Lewis rats; conditions: for spinal cord demyelination and inflammation on co-immunization with MBP72-85: day 15 after immunization
EAE in Lewis rats [2] = conditions: cited from earlier work
EAE in Lewis rats [3] = experiment: Induction-inhibition and assessment of EAE (clinical score); format: in vivo; conditions: for inhibition of MBP72-85-induced EAE (clinical signs) on co-injection: co-injected with MBP72-85, Lewis rats; for induction of EAE: injected subcutaneously in Lewis rats; for peak clinical score, day following the initial injection / recovery from EAE: injected subcutaneously in Lewis rats (section B2); for inhibition of MBP72-85-induced EAE on co-injection: analogue 500 μg co-injected with MBP72-85 25 μg, FIG. 2/3
[4] = test system: human peripheral blood T cells; experiment: Activation and proliferation of human peripheral blood T cells; format: cell-based; conditions: for reversal of agonist effect on human T cell activation and proliferation: co-culturing of the cells with antagonist peptide; for biological activity in human peripheral blood T cells relative to linear analogue: compared with linear MBP72-85 / Ala81MBP72-85; for effect on human T cell activation and proliferation: agonist peptides, linear vs cyclic

## Gln-Lys-Ser-Gln-Arg-Ser-Gln-Ala^81-GluAsn-Pro-Val [Ala^81MBP72-85]
[1]
  spinal cord demyelination and inflammation on co-immunization with MBP72-85: complete absence of inflammation and demyelination
EAE in Lewis rats [2]; Tselios et al 1999
  prevention of clinical and histopathological manifestations of disease induced by c-MBP72-85: prevented
EAE in Lewis rats [2]; background, literature
  prevention of the induction of EAE by parent peptide MBP72-85: prevented the induction of EAE
EAE in Lewis rats [3]; co-injection with the inducing cyclic analogue
  suppression of EAE induced by cyclic analogue on co-injection: completely suppressed
[4]
  reversal of agonist effect on human T cell activation and proliferation: completely reversed

## Gln^1-Lys^2-Ser^3-Gln^4-Arg^5-Ser^6-Gln^7-Ala^8-Glu^9-Asn^10-Pro^11-Val^12-NH2 [c-Ala^81MBP72-85]
[1]
  spinal cord demyelination and inflammation on co-immunization with MBP72-85: completely prevented
EAE in Lewis rats [3]
  inhibition of MBP72-85-induced EAE (clinical signs) on co-injection: completely prevented
[4]
  reversal of agonist effect on human T cell activation and proliferation: completely reversed
  biological activity in human peripheral blood T cells relative to linear analogue: comparable

## Gln^1-Lys^2-Ser^3-Gln^4-Arg^5-Ser^6-Gln^7-Asp^8-Glu^9-Asn^10-Pro^11-Val^12-NH2 [c-MBP72-85]
EAE in Lewis rats [2]; background, literature
  induction of EAE: comparable potency to MBP72-85
EAE in Lewis rats [3]
  induction of EAE: induce EAE
  peak clinical score, day following the initial injection: 15 days
  recovery from EAE: eventual complete recovery in all animals
EAE in Lewis rats [3]; listed as 1
  induction of EAE: comparable with that of linear agonist
[4]
  effect on human T cell activation and proliferation: comparable effect
  biological activity in human peripheral blood T cells relative to linear analogue: comparable

## QKSQRSQDENPV [MBP72-85, reference compound]
[1]; day 15 / peak of disease
  spinal cord histopathology after immunization with the peptide alone: extensive perivascular and parenchymal inflammation; also recorded: multiple perivascular infiltrates
EAE in Lewis rats [2]; background, literature
  induction of EAE: induce EAE
EAE in Lewis rats [3]; 25 μg peptide
  complete recovery in all animals: ≤ 18 days
  peak clinical score, day after the initial injection: 13 days
EAE in Lewis rats [3]
  induction of EAE: induced an acute monophasic disease; also recorded: induce EAE
  peak clinical score, day following the initial injection: 15 days
  recovery from EAE: eventual complete recovery in all animals
[4]
  effect on human T cell activation and proliferation: comparable effect

## Val-His-Phe-Phe-Arg^91-Asn-Ile-Val-Thr-Ala^96-Arg-Thr-Pro [[Arg^91,Ala^96]MBP87-99]
EAE in Lewis rats [3]
  inhibition of MBP72-85-induced EAE on co-injection: completely prevented
  inhibition of MBP72-85-induced EAE (clinical signs) on co-injection: completely prevented

## Val-His-Phe-Phe-Lys^91-Asn-Ile-Val-Thr-Ala^96-Arg-Thr-Pro^99 [cyclo-(91, 99) [Ala^96] MBP87-99]
EAE in Lewis rats [3]
  inhibition of MBP72-85-induced EAE on co-injection: low inhibitory activity

## Val^87-His-Phe-Phe-Arg^91-Asn-Ile-Val-Thr-Ala^96-Arg-Thr-Pro^99 [cyclo-(87, 99)[Arg^91,Ala^96]MBP87-99]
EAE in Lewis rats [3]
  inhibition of MBP72-85-induced EAE on co-injection: strong inhibitor
  inhibition of MBP72-85-induced EAE (clinical signs) on co-injection: completely prevented
